The target in assay [1] is Protein kinase C alpha type (Homo sapiens, UniProt P17252). Nature of the assay: Inhibition of [20-3H]phorbol-12,13-dibutyrate (PDBU) binding to protein kinase C (alpha).
For assay [2], the target named is Protein kinase C, PKC; classical/novel. Nature of the assay: Inhibition of [20-3H]phorbol-12,13-dibutyrate (PDBU) binding to protein kinase C. The class given is protein assay.

SMILES strings stand for the structures.

Broadly, the Ki is the equilibrium dissociation constant of an inhibitor or competing ligand from its target. Low values mean higher affinity, high ones lower affinity.

Regarding `CCCCCCCCCCCCCC[C@@H]1C(=O)O[C@@H](CO)[C@@H]1OC(C)=O`, the inhibition constant Ki in assay [1] worked out at 600 nM.
Turning to `CCCCCCCCCCCCCC[C@H]1C(=O)O[C@@H](CO)[C@@H]1OC(C)=O`, the Ki in assay [2] came out at 600 nM; in assay [1] it was 500 nM.

(Values after ChEMBL document CHEMBL1126493, “Conformationally constrained analogues of diacylglycerol (DAG). 4. Interaction of -alkylidene--lactones with protein kinase C (PK-C)” (Bioorg Med Chem Lett, 1993).)
